Legend:
[1] = target: T1, Megakaryocyte-associated tyrosine-protein kinase (Homo sapiens) (UniProt P42679); assay: Inhibition of human CTK at 500 nM by HotSpot assay relative to control
T1 sequence (whole entry): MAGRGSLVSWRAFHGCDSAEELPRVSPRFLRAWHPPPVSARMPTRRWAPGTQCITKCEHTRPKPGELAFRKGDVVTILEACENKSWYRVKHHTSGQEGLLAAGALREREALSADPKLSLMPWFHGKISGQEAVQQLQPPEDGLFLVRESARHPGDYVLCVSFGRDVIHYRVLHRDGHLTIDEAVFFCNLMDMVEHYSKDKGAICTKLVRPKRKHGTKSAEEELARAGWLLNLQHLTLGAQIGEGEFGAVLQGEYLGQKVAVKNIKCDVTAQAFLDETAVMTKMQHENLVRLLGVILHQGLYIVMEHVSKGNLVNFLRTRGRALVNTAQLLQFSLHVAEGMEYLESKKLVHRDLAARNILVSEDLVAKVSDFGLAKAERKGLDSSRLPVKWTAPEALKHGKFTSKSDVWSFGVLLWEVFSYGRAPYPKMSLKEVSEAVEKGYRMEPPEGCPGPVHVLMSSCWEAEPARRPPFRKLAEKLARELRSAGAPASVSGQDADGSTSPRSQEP

[2] = target: Mitogen-activated protein kinase kinase kinase 11 (Homo sapiens) (UniProt Q16584); assay: Inhibition of human MAP3K11 at 500 nM by HotSpot assay relative to control
[3] = target: Serine/threonine-protein kinase MARK2 (Homo sapiens) (UniProt Q7KZI7); assay: Inhibition of human PAR-1Ba at 500 nM by HotSpot assay relative to control
[4] = target: CDK3/Cyclin E (Homo sapiens) (UniProt P24864+Q00526); assay: Inhibition of human CDK3/cyclin E at 500 nM by HotSpot assay relative to control; type: protein-complex assay
[5] = target: BDNF/NT-3 growth factors receptor (Homo sapiens) (UniProt Q16620); assay: Inhibition of human TRKB at 500 nM by HotSpot assay relative to control
[6] = target: CDK6/cyclin D3 (Homo sapiens) (UniProt P30281+Q00534); assay: Inhibition of human CDK6/cyclin D3 at 500 nM by HotSpot assay relative to control; type: protein-complex assay
[7] = target: T2, Inhibitor of nuclear factor kappa-B kinase subunit alpha (Homo sapiens) (UniProt O15111); assay: Inhibition of human IKKa at 500 nM by HotSpot assay relative to control
T2 sequence (whole entry): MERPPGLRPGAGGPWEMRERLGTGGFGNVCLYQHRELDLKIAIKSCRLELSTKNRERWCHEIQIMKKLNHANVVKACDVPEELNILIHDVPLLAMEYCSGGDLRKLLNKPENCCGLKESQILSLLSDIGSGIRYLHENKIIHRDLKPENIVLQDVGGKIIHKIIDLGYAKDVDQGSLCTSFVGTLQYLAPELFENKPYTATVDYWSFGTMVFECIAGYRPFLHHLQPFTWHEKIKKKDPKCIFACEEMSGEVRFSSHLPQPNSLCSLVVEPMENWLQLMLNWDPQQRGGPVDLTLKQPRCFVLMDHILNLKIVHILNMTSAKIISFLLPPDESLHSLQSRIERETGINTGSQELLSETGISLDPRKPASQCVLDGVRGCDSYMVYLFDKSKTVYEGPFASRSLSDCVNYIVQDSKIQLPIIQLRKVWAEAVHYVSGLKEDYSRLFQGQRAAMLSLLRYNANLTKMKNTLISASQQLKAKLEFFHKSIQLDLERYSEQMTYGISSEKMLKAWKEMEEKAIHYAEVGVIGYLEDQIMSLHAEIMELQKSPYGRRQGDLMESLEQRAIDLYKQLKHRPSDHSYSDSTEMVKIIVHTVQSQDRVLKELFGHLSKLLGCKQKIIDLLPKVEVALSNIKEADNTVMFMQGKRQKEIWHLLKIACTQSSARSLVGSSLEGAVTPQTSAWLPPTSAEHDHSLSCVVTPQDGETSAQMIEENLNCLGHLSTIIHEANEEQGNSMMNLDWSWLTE

[8] = target: Cyclin-dependent kinase 5/CDK5 activator 1 (Homo sapiens) (UniProt Q00535+Q15078); assay: Inhibition of human CDK5/p25 at 500 nM by HotSpot assay relative to control; type: protein-complex assay
[9] = target: Ephrin type-B receptor 4 (Homo sapiens) (UniProt P54760); assay: Inhibition of human EPHB4 at 500 nM by HotSpot assay relative to control
[10] = target: Mitogen-activated protein kinase 10 (Homo sapiens) (UniProt P53779); assay: Inhibition of human JNK3 at 500 nM by HotSpot assay relative to control
[11] = target: T3, Tyrosine-protein kinase Mer (Homo sapiens) (UniProt Q12866); assay: Inhibition of human c-MER at 500 nM by HotSpot assay relative to control
T3 sequence (whole entry): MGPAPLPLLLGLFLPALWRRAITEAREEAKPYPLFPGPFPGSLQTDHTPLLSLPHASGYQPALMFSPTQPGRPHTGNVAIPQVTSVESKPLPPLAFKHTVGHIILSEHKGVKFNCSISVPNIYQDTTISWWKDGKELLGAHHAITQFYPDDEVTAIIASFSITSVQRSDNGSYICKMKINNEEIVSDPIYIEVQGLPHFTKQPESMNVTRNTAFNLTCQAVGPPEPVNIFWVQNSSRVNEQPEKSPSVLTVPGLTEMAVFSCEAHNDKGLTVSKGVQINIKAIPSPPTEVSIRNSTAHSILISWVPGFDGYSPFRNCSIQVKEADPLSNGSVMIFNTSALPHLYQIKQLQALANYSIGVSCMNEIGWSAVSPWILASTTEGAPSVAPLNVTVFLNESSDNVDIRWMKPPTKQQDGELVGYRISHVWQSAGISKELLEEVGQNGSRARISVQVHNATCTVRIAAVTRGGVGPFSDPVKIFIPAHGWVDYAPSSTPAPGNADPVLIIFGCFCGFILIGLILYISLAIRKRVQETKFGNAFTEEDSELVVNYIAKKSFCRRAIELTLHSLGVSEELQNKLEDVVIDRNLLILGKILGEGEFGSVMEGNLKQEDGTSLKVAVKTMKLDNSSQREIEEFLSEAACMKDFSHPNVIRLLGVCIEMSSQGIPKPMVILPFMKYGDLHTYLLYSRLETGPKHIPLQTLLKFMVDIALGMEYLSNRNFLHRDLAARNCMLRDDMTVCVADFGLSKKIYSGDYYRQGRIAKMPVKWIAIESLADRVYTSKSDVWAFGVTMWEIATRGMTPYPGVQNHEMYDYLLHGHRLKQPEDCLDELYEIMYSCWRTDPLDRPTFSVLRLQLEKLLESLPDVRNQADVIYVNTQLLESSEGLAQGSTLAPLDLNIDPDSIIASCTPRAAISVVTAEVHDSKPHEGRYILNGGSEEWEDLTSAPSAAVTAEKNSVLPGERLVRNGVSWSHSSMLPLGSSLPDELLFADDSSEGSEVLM

[12] = target: Receptor tyrosine-protein kinase erbB-2 (Homo sapiens) (UniProt P04626); assay: Inhibition of human ERBB2 at 500 nM by HotSpot assay relative to control
Receptor tyrosine-protein kinase erbB-2 (Homo sapiens), sequence (P04626 whole entry): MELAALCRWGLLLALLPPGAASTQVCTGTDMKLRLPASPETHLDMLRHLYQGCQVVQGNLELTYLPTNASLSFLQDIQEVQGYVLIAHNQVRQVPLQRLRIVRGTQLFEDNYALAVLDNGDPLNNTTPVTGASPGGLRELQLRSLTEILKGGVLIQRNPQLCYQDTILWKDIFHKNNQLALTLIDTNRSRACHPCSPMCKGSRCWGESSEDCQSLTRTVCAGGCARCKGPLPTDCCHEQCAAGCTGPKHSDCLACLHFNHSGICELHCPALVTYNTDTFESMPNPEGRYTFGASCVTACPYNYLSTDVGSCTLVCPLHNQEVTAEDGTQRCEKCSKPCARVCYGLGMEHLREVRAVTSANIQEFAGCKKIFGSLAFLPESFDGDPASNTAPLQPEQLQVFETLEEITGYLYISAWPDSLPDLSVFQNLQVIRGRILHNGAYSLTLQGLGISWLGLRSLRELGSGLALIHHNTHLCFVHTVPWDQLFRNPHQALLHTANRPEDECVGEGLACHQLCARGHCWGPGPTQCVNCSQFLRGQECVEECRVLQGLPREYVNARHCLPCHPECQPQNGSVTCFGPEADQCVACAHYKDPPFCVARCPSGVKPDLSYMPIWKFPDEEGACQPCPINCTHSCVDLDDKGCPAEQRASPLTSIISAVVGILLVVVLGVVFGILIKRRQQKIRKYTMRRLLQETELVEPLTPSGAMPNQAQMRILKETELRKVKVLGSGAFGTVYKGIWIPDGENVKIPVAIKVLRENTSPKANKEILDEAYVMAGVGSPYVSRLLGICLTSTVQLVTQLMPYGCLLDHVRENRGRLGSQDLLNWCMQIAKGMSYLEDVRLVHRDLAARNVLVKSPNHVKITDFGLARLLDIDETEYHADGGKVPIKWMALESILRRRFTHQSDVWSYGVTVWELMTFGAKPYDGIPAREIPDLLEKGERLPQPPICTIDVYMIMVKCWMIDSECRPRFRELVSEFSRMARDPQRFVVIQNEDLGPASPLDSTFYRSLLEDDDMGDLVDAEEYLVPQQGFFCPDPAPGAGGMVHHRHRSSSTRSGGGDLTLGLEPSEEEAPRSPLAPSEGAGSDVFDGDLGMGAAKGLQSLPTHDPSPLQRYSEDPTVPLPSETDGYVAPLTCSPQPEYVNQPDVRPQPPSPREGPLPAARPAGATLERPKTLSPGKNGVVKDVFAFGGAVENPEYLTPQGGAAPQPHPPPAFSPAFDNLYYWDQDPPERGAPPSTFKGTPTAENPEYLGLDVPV

BDNF/NT-3 growth factors receptor (Homo sapiens), sequence (Q16620 32-822 limits assumed): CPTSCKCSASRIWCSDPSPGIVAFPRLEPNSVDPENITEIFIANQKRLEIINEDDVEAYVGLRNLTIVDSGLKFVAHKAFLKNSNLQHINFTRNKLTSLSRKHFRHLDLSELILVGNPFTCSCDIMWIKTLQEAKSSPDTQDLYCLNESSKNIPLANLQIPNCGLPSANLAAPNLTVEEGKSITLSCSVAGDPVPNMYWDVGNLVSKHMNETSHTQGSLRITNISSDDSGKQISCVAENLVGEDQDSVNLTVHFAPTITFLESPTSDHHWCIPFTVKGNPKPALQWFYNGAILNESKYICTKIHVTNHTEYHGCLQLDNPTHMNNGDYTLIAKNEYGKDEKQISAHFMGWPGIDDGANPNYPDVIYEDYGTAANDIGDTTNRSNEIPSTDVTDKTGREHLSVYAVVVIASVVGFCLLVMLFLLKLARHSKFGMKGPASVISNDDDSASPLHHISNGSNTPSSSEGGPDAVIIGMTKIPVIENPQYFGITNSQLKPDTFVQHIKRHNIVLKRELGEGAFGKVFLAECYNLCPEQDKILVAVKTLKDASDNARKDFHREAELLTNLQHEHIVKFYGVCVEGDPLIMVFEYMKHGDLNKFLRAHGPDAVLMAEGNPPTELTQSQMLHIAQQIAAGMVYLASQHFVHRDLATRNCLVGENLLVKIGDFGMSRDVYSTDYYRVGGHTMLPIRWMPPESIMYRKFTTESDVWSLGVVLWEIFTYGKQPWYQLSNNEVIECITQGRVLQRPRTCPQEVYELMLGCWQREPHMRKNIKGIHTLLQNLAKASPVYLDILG
Ephrin type-B receptor 4 (Homo sapiens), sequence (P54760 whole entry): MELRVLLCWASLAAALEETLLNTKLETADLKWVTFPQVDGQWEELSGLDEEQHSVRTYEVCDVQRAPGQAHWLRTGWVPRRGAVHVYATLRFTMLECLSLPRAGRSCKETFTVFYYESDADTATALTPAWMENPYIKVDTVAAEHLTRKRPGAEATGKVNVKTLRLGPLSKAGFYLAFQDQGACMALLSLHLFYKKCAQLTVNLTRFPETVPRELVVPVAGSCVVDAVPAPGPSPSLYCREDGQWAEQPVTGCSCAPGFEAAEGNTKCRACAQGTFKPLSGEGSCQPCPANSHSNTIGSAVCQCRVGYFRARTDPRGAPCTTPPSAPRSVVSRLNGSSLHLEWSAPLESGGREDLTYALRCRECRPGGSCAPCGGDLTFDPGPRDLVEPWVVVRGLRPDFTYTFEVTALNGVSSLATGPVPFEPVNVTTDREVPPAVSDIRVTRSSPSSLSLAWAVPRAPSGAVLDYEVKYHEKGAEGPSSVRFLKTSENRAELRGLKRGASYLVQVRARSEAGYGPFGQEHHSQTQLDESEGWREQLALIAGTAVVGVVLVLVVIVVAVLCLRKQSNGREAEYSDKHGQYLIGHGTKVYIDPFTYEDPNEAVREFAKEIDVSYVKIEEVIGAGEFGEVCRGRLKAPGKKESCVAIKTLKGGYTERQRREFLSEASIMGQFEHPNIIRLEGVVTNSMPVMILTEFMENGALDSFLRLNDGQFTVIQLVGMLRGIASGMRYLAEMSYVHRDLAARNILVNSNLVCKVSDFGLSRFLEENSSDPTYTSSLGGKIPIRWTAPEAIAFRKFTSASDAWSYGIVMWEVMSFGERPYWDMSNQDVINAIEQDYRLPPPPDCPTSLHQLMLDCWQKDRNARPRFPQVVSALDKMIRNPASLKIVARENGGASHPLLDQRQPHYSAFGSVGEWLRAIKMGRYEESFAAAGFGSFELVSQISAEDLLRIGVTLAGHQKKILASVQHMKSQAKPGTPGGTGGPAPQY
Cyclin-dependent kinase 5/CDK5 activator 1 (Homo sapiens), sequence (Q00535 whole entry): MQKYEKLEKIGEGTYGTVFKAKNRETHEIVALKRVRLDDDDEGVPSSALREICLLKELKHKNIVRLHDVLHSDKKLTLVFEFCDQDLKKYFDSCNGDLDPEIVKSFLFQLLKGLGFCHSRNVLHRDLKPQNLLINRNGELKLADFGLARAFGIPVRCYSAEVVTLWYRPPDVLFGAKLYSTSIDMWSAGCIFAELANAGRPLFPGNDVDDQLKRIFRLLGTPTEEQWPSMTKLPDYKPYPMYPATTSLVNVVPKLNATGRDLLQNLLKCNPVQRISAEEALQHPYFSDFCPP
Cyclin-dependent kinase 5/CDK5 activator 1 (Homo sapiens), sequence (Q15078 99-307 partner limits assumed): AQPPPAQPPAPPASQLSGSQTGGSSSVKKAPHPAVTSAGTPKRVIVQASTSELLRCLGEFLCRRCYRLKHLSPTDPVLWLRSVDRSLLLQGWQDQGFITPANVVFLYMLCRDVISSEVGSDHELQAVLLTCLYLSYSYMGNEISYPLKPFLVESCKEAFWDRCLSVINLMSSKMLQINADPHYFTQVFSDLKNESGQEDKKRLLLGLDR
CDK3/Cyclin E (Homo sapiens), sequence (P24864 whole entry, looked up): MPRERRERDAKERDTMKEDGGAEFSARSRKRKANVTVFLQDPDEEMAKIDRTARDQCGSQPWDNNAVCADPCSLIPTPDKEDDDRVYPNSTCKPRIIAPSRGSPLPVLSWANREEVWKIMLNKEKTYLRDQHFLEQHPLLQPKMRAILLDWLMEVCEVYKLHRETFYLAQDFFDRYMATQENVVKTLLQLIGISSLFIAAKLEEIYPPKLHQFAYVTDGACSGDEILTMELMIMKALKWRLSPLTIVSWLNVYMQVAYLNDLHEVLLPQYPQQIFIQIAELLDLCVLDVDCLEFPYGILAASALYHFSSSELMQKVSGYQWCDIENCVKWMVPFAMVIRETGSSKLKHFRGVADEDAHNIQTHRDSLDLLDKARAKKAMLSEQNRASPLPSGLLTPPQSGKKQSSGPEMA
CDK3/Cyclin E (Homo sapiens), sequence (Q00526 whole entry, looked up): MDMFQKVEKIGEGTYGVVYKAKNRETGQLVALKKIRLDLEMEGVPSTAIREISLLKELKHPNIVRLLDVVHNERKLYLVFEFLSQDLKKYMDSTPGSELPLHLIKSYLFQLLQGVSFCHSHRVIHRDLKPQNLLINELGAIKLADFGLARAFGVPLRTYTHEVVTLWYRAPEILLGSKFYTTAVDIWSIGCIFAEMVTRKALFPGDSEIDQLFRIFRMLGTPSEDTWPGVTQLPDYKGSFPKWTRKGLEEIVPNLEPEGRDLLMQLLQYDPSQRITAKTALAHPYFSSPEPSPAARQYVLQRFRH
Mitogen-activated protein kinase 10 (Homo sapiens), sequence (P53779 whole entry): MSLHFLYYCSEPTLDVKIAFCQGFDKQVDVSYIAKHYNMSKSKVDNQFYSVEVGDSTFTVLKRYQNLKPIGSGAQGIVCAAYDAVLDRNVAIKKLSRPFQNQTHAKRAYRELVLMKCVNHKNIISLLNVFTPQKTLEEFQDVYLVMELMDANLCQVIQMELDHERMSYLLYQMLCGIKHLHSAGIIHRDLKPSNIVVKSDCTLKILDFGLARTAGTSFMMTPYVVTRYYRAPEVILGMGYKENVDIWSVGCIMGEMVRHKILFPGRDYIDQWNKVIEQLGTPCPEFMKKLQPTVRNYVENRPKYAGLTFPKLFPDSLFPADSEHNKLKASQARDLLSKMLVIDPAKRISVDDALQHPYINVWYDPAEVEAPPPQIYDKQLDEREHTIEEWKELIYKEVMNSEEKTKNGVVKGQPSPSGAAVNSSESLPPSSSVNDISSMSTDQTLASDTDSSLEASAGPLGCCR

SMILES | inhibition [1] [%] | inhibition [2] [%] | inhibition [3] [%] | inhibition [4] [%] | inhibition [5] [%] | inhibition [6] [%] | inhibition [7] [%] | inhibition [8] [%] | inhibition [9] [%] | inhibition [10] [%] | inhibition [11] [%] | inhibition [12] [%]
Nc1n[nH]c2nnc(-c3c(-c4ccccc4)nn4ccccc34)cc12 | 4.4 | 5.68 | -4.05 | 3.23 | 10.3 | 9.56 | 2.52 | -0.57 | 1.54 | -3.19 | 23.6 | -4.95
Oc1n[nH]c2nnc(-c3c(-c4ccccc4)nn4ccccc34)cc12 | 1.78 | 2.87 | -4.11 | 1.33 | 2.59 | 1.59 | -0.4 | 1.29 | 2.91 | 5.98 | 2 | -4.85
